Measured values: patent publication US5431922A (Bristol-Myers Squibb Company, priority 1993, dated 1995)

Key:
[1] = in vivo, cited from earlier work
[2] = test system: patients undergoing diazepam-withdrawal; conditions: human, in vivo; cited from earlier work
rat = test: Rat forced swim test (antidepressant screening); format: in vivo
[3] = pharmacologic testing; cited from earlier work
[4] = test system: diazepam-withdrawn animals; conditions: cited from earlier work
[5] = Johansson et al. 1971; cited from earlier work

O=C1CC2(CCCC2)CC(=O)N1CCCCN1CCN(c2ncccn2)CC1 [Buspirone, 8-[4-[4-(2-pyrimidinyl)1-piperazinyl]butyl]-8-azaspiro(4,5)-decane-7,9-dione]
biological half-life ([1]; human): 2-11 hours | treatment of patients undergoing diazepam-withdrawal [2]: failed to adequately treat patients undergoing diazepam-withdrawal | activity in rat forced swim test (rat; given intracerebrally): active | activity in rat forced swim test (rat; given systemically): inactive

c1cnc(N2CCNCC2)nc1 [Example 1-PP, 1-(2-pyrimidinyl)piperazine]
elimination (in words) [1]: much slower elimination | anxiolytic potency relative to buspirone [3]: 20-25% | blockade of activity of intracerebral buspirone in forced swim test (rat; systemic administration of 1-PP): blocked | effect on social interaction ([4]; diazepam-naive subjects): had not shown any effect | effect in social interaction paradigm ([4]; diazepam-withdrawn animals): anxiogenic effect

C=CCc1ccccc1OCC(O)CNC(C)C (stereo not shown) [alprenolol]
metabolism in controlled/extended release form vs conventional tablets (in words) [5]: more complete when it was administered in a controlled/extended release form than in conventional tablets
